In series [1] the target is hFAP (M39-A757) (Homo sapiens (Human), UniProt Q12884). In words: hFAP binding assay (surface plasmon resonance). As to conditions: SPR, 20° C.; for hFAP Binding assay k(off) / hFAP Binding assay k(on): single cycle kinetics; for Kd: n = 1 or geometric mean n = 2-4.
Series [2] is described as follows: Metabolic stability in rat hepatocytes (rHep). Conditions: n = 1 or geometric mean of n = 2-3.
A short description of series [3]: Metabolic stability in human liver microsomes (HLM). As to conditions: human, HLM CLint, n = 1 or average of n = 2-3.
Protocol: Metabolic stability in HLM was measured as described in J Comput Aided Mol Des 2015, 29, 795.
Series [4] in a line: Kinetic solubility. As to conditions: kinetic from dmso stock, Solubility, kinetic solubility; n = 1 or average of n = 2-3.
Protocol: Kinetic solubility was measured as described in Comput Aided Mol Des 2015, 29, 795.
In series [5] the target is T1, FAP (Homo sapiens (Human), UniProt Q12884). The experiment in a line: FAP plasma inhibition assay, human plasma. It counts as biochemical. As to conditions: human plasma diluted 1:40, Ala-Pro-AMC 75 μM. The procedure: (§1) This assay was adapted from the method described in Example 237 for detection of FAP target engagement enzyme activity in plasma. Plasma (anticoagulant K2EDTA) was used as the enzyme source: Human plasma (Pooled from AZ Biobank), Mouse plasma (AZ AST Biobank), and Cynomolgus plasma (BioIVT, #NHP00PLK2FNN, lot CYN222895). 384-Well black fluotrack PS plates (Greiner 781076) were used. 20 μL diluted plasma (Cynomolgus and Human plasma dilution 1:40, Mouse plasma dilution 1:67) in buffer (PBS, 0.1% BSA) was added to 0.6 μL compounds (in DMSO). Compounds were tested using 10 CR, 3 fold dilution series from 500 nM FAC. Two replicates for each assay point were run on the same plate. A fluorescence blank read was taken before substrate addition. […] Plates were incubated for 40 min at rt in the dark. […] IC50 values were determined by plotting % inhibition versus log compound concentration.
Target sequence in this assay (Q12884 24-760): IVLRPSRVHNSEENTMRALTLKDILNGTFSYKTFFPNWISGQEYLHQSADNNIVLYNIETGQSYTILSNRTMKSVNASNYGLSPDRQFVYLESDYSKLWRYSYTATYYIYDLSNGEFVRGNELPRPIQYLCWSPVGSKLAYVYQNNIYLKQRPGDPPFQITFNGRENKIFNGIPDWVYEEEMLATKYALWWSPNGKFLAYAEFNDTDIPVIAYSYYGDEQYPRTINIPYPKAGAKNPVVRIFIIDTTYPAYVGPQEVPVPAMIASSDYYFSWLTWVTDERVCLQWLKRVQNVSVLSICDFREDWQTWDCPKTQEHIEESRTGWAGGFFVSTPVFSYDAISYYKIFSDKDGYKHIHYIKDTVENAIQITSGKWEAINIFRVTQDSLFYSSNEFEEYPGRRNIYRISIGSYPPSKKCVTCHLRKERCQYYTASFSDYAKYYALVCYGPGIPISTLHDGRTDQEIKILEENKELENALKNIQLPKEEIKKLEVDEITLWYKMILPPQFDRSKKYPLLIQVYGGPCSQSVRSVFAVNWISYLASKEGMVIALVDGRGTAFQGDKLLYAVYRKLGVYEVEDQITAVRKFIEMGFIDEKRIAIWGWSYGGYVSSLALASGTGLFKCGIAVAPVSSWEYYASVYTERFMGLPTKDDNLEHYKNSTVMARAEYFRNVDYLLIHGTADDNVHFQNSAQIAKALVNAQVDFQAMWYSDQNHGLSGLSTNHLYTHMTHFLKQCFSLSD

For series [6], the target named is FAP (Mus musculus (Mouse), UniProt P97321). In words: FAP plasma inhibition assay, mouse plasma. In kind it is biochemical. Conditions: mouse plasma diluted 1:67, Ala-Pro-AMC 75 μM. Here is the method:
as §1

The target of series [7] is human Fibroblast activation protein alpha (hFAP) (Homo sapiens (Human), UniProt Q12884). In words: hFAP inhibition assay (tight binders). Further: hFAP 2.4 pM. In kind it is biochemical. As to conditions: Ala-Pro-AMC 20 μM, n = 1 or geometric mean n = 2-6. Here is the method: The plates were read on a PHERAstar® reader with excitation 340 nm and emission 460 nm. Data were analyzed in Genedata Screener®. IC50 values were determined by plotting % inhibition versus log compound concentration and using a one site dose response model.
Chain of human Fibroblast activation protein alpha (hFAP) (Q12884 38-760): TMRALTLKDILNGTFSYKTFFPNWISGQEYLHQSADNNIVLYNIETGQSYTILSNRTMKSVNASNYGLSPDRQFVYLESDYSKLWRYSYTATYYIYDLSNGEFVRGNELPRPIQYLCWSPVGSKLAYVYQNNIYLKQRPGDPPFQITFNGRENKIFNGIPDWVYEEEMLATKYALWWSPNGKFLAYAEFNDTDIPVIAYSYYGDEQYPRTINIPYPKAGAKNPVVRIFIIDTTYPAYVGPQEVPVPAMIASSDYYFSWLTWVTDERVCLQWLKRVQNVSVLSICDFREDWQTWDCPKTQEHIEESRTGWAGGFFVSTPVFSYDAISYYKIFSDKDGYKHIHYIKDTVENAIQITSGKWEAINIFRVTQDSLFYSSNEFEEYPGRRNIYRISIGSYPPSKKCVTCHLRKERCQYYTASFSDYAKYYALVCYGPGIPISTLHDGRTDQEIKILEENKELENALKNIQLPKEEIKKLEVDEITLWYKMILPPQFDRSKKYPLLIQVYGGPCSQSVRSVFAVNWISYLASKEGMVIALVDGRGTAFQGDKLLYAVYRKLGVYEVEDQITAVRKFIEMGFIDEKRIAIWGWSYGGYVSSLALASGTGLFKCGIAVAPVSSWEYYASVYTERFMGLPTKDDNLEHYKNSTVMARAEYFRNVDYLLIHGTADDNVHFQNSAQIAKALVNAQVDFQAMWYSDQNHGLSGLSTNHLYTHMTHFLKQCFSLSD

Series [8] deals with T1, FAP. The experiment in a line: hFAP inhibition assay. As to conditions: hFAP […], Ala-Pro-AMC 20 μM; n = 1 or geometric mean n = 2-3. It counts as biochemical. In a few lines:
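Human FAP (0.48 nM) in 100 mM Tris HCl, 100 mM NaCl, 0.05% Chaps, pH 7.4 was preincubated 15 min at rt in the dark with compounds (10-point, 3-fold series from 50 μM). Substrate was added from a 40 μM solution, then 30 min at rt. Fluorescence read at ex 340/em 460 nm; IC50 from one-site dose-response fit of % inhibition.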
Target sequence in this assay (Q12884 38-760): as above

Series [9] addresses Prolyl endopeptidase, Prolyl Oligopeptidase (hPREP) (Homo sapiens (Human), UniProt P48147). The experiment in a line: hPrep inhibition assay. It counts as biochemical. As to conditions: hPREP 0.6 nM, Z-Gly-Pro-amino-methylcoumarin 50 μM; read-out: PREP IC50. In short, it runs like this:
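Recombinant human PREP at 0.6 nM final with Z-Gly-Pro-AMC substrate at 50 μM final in Tris-HCl pH 7.5, NaCl, Triton X-100, glutathione; 15 min rt preincubation then 20 min rt reaction in dark. AMC fluorescence (ex 340/em 460 nm); IC50 from one-site dose-response fit of % inhibition.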

The nature of series [10]: Caco-2 cell permeability. Conditions: human. (In general: Caco-2 monolayers are a common model of the intestinal barrier.)
Protocol: Caco-2 cell permeability was measured as described in Mol Pharm 2017, 14, 1601.
Series [11] can be described thus: Metabolic stability in human hepatocytes (hHep). As to conditions: n = 1 or geometric mean of n = 2. In kind it is in vitro ADME.

This note sets out measurements from patent publication US20230312550A1, “N-(2-(4-CYANOTHIAZOLIDIN-3-YL)-2-OXOETHYL)-QUINOLINE-4-CARBOXAMIDES” (AstraZeneca AB, priority 2020, published 2023).

Converted amounts (≈) assume the structure as drawn.

Chain of hFAP (M39-A757) (Q12884 39-757): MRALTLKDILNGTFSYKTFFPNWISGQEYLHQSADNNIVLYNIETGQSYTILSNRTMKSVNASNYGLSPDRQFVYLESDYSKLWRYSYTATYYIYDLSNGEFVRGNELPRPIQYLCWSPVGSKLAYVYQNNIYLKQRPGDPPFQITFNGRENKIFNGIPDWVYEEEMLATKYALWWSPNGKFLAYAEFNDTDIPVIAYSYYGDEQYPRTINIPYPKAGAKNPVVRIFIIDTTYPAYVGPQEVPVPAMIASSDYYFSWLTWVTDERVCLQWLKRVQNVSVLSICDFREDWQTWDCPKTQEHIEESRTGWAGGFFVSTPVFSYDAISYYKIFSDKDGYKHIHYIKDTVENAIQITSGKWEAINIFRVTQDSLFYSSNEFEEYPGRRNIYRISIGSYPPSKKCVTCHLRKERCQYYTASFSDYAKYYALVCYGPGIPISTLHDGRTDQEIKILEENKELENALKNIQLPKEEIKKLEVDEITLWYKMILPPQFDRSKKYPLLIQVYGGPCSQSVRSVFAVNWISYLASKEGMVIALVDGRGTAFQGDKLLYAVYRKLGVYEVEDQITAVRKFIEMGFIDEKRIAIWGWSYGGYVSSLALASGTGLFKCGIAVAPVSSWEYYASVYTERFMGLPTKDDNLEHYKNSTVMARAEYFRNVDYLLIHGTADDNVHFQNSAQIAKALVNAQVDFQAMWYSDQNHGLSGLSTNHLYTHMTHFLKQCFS
Chain of FAP (Mus musculus (Mouse), UniProt P97321) (P97321 24-761): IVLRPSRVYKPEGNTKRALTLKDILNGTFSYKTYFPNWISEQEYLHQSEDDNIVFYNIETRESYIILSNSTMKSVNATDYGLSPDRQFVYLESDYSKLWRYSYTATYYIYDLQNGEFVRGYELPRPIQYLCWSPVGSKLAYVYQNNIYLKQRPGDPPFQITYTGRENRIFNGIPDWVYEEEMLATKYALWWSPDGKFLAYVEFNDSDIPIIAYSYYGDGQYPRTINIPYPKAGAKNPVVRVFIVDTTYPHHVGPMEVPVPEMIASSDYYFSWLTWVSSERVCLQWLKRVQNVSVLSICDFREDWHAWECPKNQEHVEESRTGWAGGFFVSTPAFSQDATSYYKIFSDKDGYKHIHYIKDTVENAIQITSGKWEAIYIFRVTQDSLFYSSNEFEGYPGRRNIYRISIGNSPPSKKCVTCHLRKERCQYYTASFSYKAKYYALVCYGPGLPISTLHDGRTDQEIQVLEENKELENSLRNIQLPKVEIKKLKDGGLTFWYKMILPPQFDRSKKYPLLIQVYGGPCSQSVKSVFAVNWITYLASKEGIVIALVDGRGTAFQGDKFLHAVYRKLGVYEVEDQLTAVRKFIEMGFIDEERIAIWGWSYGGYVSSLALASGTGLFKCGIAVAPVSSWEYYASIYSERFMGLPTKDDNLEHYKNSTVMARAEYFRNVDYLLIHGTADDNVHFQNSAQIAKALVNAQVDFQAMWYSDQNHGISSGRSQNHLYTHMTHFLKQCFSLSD
Chain of Prolyl endopeptidase, Prolyl Oligopeptidase (hPREP) (P48147 whole entry): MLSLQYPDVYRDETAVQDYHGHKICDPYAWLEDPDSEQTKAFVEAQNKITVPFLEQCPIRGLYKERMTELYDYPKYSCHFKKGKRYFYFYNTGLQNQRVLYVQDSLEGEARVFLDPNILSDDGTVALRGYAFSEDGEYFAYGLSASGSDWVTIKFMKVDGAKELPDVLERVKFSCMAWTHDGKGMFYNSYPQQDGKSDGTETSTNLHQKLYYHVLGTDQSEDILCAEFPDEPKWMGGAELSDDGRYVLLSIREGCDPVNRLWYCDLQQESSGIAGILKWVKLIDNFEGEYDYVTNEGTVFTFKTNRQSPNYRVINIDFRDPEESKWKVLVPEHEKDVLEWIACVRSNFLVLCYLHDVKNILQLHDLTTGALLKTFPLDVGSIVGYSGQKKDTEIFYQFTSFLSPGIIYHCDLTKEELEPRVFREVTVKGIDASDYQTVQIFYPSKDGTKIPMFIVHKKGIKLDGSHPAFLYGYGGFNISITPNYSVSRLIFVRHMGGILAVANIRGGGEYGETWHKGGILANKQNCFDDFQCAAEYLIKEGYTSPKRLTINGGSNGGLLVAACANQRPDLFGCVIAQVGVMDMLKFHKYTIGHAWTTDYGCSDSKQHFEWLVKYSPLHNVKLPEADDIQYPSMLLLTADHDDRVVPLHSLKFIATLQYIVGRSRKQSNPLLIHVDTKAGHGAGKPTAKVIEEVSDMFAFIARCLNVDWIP

Regarding `COc1ccc(-c2ccc3nccc(C(=O)NCC(=O)N4CSC[C@H]4C#N)c3c2)cn1` [Example 178, (R)—N-(2-(4-Cyanothiazolidin-3-yl)-2-oxoethyl)-6-(6-methoxypyridin-3-yl)quinoline-4-carboxamide], the “hFAP Binding assay k(off)” value in series [1] was 0.00017 s⁻¹. Besides, the “hFAP Binding assay k(on)” value in series [1] is 3100000 M⁻¹ s⁻¹. The Kd (in general, a measure of binding affinity in units of concentration) in series [1] was found to be 0.053 nM. In series [2], the “rHep CLint” value is 7.2 μL/min/1E6. Moreover, the microsomal CLint – broadly, the rate of metabolic loss divided by the concentration – in series [3] worked out at 16 µL/min/mg. Besides, in series [4], the solubility (commonly how much of the substance goes into solution per volume) is 6 µM (≈ 2.6 µg/mL). For the same compound, the IC50 (usually the midpoint of a concentration-inhibition curve) in series [5] stood at 0.1 nM; in series [6] it was 0.1 nM; in series [7] it was 0.042 nM; in [8] it was 0.2 nM; in series [9], 120 nM.

In the case of `C[C@H]1CCCN(c2ccc3nccc(C(=O)NCC(=O)N4CSC[C@H]4C#N)c3c2)C1=O` (single isomer, unassigned) [Example 203, N-(2-((R)-4-Cyanothiazolidin-3-yl)-2-oxoethyl)-6-((R*)-3-methyl-2-oxopiperidin-1-yl)quinoline-4-carboxamide], in series [1], the “hFAP Binding assay k(off)” value came out at 0.000063 s⁻¹; the “hFAP Binding assay k(on)” value stood at 440000 M⁻¹ s⁻¹; the affinity, expressed as Kd, was 0.15 nM. Besides, the “rHep CLint” value in series [2] is 2.9 μL/min/1E6. The compound further yielded an intrinsic clearance (microsomal CLint) in series [3] of 12 µL/min/mg. The compound also yielded a solubility in series [4] of 540 µM (≈ 236 µg/mL). The compound further showed an IC50 in series [5] of 0.4 nM. This compound yielded an IC50 in series [6] of 0.5 nM. Further, 0.26 nM corresponded to half-maximal inhibition in series [7] (IC50). Further, in [10], the Papp A→B (in general, the apparent permeability from the apical to the basolateral side of a cell layer) amounted to 0.4 ×10⁻⁶ cm/s; the Papp B→A (in general, how fast a substance crosses the layer from the basolateral side) turned out to be 8 ×10⁻⁶ cm/s; the efflux ratio (in general, a quotient of directional permeabilities that is used to spot active efflux) came to 20. In addition, the IC50 in series [9] was determined as 3500 nM.

`C[C@@H]1CCCN(c2ccc3nccc(C(=O)NCC(=O)N4CSC[C@H]4C#N)c3c2)C1=O` (single isomer, unassigned) [Example 204, N-(2-((R)-4-Cyanothiazolidin-3-yl)-2-oxoethyl)-6-((R*)-3-methyl-2-oxopiperidin-1-yl)quinoline-4-carboxamide]: in series [1], the “hFAP Binding assay k(off)” value stood at 0.000058 s⁻¹, the “hFAP Binding assay k(on)” value amounted to 850000 M⁻¹ s⁻¹ and the Kd worked out at 0.068 nM. Further, in series [2], the “rHep CLint” value is 1.8 μL/min/1E6. In series [3], the microsomal CLint is 8 µL/min/mg. This compound also came in with a solubility in series [4] of 480 µM (≈ 210 µg/mL). The compound also returned an IC50 in series [5] of 0.2 nM. Moreover, in [6], the IC50 worked out at 0.3 nM. The IC50 in [7] was found to be 0.067 nM. For the same compound, in series [10], the Papp A→B came out at 0.44 ×10⁻⁶ cm/s, the Papp B→A is 8.5 ×10⁻⁶ cm/s and the efflux ratio came to 19. In series [9], the IC50 worked out at 920 nM.

With `CC(F)(F)C1CN(c2ccc3nccc(C(=O)NCC(=O)N4CSC[C@H]4C#N)c3c2)C1` [Example 147, (R)—N-(2-(4-Cyanothiazolidin-3-yl)-2-oxoethyl)-6-(3-(1,1-difluoroethyl)-azetidin-1-yl)quinoline-4-carboxamide], in series [1], the “hFAP Binding assay k(off)” value came to 0.00012 s⁻¹, the “hFAP Binding assay k(on)” value was determined as 2800000 M⁻¹ s⁻¹ and the Kd was found to be 0.045 nM. In addition, the “rHep CLint” value in series [2] was 2.9 μL/min/1E6. The microsomal CLint in series [3] turned out to be 17 µL/min/mg. Further, the concentration in solution in series [4] (solubility) was 40 µM (≈ 17.8 µg/mL). Further, in series [5], the IC50 turned out to be 0.1 nM. In series [6], this compound had an IC50 of 0.2 nM. Besides, the IC50 in series [7] was determined as 0.067 nM. For the same compound, in series [10], the Papp A→B worked out at 2.7 ×10⁻⁶ cm/s, the Papp B→A stood at 40 ×10⁻⁶ cm/s and the efflux ratio came to 15. Also, the IC50 in series [9] is 570 nM.

Consider `CC1(C)OCCN(c2ccc3nccc(C(=O)NCC(=O)N4CSC[C@H]4C#N)c3c2)C1=O` [Example 16, (R)—N-(2-(4-Cyanothiazolidin-3-yl)-2-oxoethyl)-6-(2,2-dimethyl-3-oxomorpholino)quinoline-4-carboxamide], for which, in series [1], the “hFAP Binding assay k(off)” value came to 0.000041 s⁻¹, the “hFAP Binding assay k(on)” value worked out at 740000 M⁻¹ s⁻¹ and the Kd came out at 0.054 nM. The “rHep CLint” value in [2] is given as below 1 μL/min/1E6. Also, the microsomal CLint in series [3] is below 3 µL/min/mg. Besides, the solubility in [4] was 170 µM (≈ 77.1 µg/mL). This compound also showed an IC50 in series [5] of 0.2 nM. For the same compound, 0.4 nM corresponded to half-maximal inhibition in series [6] (IC50). For the same compound, in series [7], the IC50 is 0.11 nM. Besides, in series [10], the apparent permeability from apical to basolateral (Papp A→B) turned out to be 0.16 ×10⁻⁶ cm/s, the Papp B→A amounted to 4.2 ×10⁻⁶ cm/s and the efflux ratio was determined as 26. Moreover, the IC50 in series [9] amounted to 1600 nM.

`Cn1nccc1-c1ccc2nccc(C(=O)NCC(=O)N3CSC[C@H]3C#N)c2c1` [Example 174, (R)—N-(2-(4-Cyanothiazolidin-3-yl)-2-oxoethyl)-6-(1-methyl-1H-pyrazol-5-yl)quinoline-4-carboxamide]: in [1], the “hFAP Binding assay k(off)” value is 0.00024 s⁻¹; the “hFAP Binding assay k(on)” value amounted to 1900000 M⁻¹ s⁻¹; the affinity, expressed as Kd, was 0.13 nM. For the same compound, in series [2], the “rHep CLint” value is 7.2 μL/min/1E6. This compound registered a microsomal CLint in series [3] of 12 µL/min/mg. The solubility in series [4] stood at 800 µM (≈ 325 µg/mL). In [5], this compound returned an IC50 of 0.2 nM. The compound further showed an IC50 in series [6] of 0.4 nM. Inhibition in series [7] was half-maximal at 0.26 nM (IC50). In series [10], the Papp A→B is 0.54 ×10⁻⁶ cm/s, the Papp B→A came out at 25 ×10⁻⁶ cm/s and the efflux ratio worked out at 46. In [8], this compound displayed an IC50 of 0.44 nM. In addition, in series [9], the IC50 was 87 nM.

Take `CN1CCC(F)(c2ccc3nccc(C(=O)NCC(=O)N4CSC[C@H]4C#N)c3c2)CC1` [Example 195, (R)—N-(2-(4-Cyanothiazolidin-3-yl)-2-oxoethyl)-6-(4-fluoro-1-methyl-piperidin-4-yl)quinoline-4-carboxamide]: in [1], the “hFAP Binding assay k(off)” value turned out to be 0.000061 s⁻¹, the “hFAP Binding assay k(on)” value was 190000 M⁻¹ s⁻¹ and the Kd was 0.33 nM. Further, the “rHep CLint” value in series [2] was determined as 1.8 μL/min/1E6. The compound further came in with a microsomal CLint in series [3] below 3 µL/min/mg. Moreover, in series [4], the solubility worked out at 830 µM (≈ 366 µg/mL). In [5], this compound registered an IC50 of 0.9 nM. This compound also had an IC50 in series [6] of 1.4 nM. This compound also displayed a 50% inhibitory concentration (IC50) in [7] of 0.39 nM. Besides, in series [10], the apical-to-basolateral permeability (Papp A→B) stood at 0.4 ×10⁻⁶ cm/s, the Papp B→A worked out at 4.8 ×10⁻⁶ cm/s and the efflux ratio turned out to be 12. Further, in series [9], the IC50 amounted to 1200 nM.

Turning to `CC1(CS(C)(=O)=O)CN(c2ccc3nccc(C(=O)NCC(=O)N4CSC[C@H]4C#N)c3c2)C1` [Example 188, (R)—N-(2-(4-Cyanothiazolidin-3-yl)-2-oxoethyl)-6-(3-methyl-3-((methylsulfonyl)methyl)azetidin-1-yl)quinoline-4-carboxamide], in [1], the “hFAP Binding assay k(off)” value was 0.000022 s⁻¹, the “hFAP Binding assay k(on)” value turned out to be 2600000 M⁻¹ s⁻¹ and the Kd came to 0.011 nM. Further, the “rHep CLint” value in series [2] is on record as 1.8 μL/min/1E6. For the same compound, in series [3], the microsomal CLint is 3.1 µL/min/mg. The amount in solution in series [4] (solubility) came to 990 µM (≈ 483 µg/mL). In series [11], the “hHep CLint” value is listed as below 1 μL/min/1E6. Also, 0.19 nM corresponded to half-maximal inhibition in series [7] (IC50). In series [10], the Papp (as a rule, a coefficient for how fast a substance crosses the barrier) was determined as 0.28 ×10⁻⁶ cm/s; the Papp A→B was found to be 0.18 ×10⁻⁶ cm/s; the Papp B→A came out at 3.7 ×10⁻⁶ cm/s; the efflux ratio was 21. In addition, the IC50 in series [8] stood at 0.28 nM. The concentration for half-maximal inhibition (IC50) in series [9] turned out to be 430 nM.
